Literature values, collected in US20230143212A1 (Navinta, LLC, priority 2021, published 2023).
“And” between values parts separate entries of the source, which are not always exact repeats. Equal values may be shown once. Read-outs that look alike come from different tables or passages of the source.

Experiments:
[1] = for solubility in propylene glycol/water: 25° C.
[2] = ethyl alcohol, DMSO, propylene glycol, polyethylene glycol, glycerol, dimethylformamide
[3] = rabbits; composition in polyethylene glycol-300 with and without bile salt
[4] = orally administered

COc1ccc2[nH]cc(CCNC(C)=O)c2c1 [Melatonin, N-[2-(5-Methoxy-1H-indol-3-yl)ethyl] acetamide]
solubility in propylene glycol/water ([1]; 60% v/v propylene glycol): about 250 mM and 60 mg/ml | solubility in propylene glycol/water ([1]; until reaching 40% v/v propylene glycol): up to 50 mM and ~ 12 mg/ml | pH dependence of solubility in water ([1]; water): pH-independent solubility | solubility in organic solvents [2]: soluble | bioavailability via intranasal route [3]: increased substantially | Plasma T½ [4]: ~ 50 minutes | oral absorption [4]: almost completely absorbed | oral bioavailability [4]: ~ 15%
